What was measured:
Conditions in all cases: incubation time: 72 h
[1] = test system: HDQ-P1; assay: drug sensitivity score (DSS), CellTiter-Blue viability (DSS (AUC-based score)); higher = stronger viability inhibition; extreme values may be limits of the assay
Method: (§1)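 DSRT with the CellTiter-Blue (resazurin reduction) viability readout, fluorescence 560/590 nm, 72 h incubation. Plates were normalised to DMSO and benzethonium chloride controls. DSS is computed from the area under the fitted dose-response curve (5 or 9 concentrations).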

[2] = test system: CAL-51; assay: as above
Method: as §1

[3] = test system: HCC1143; assay: as above
Method: as §1

[4] = test system: DU-4475; assay: as above
Method: as §1

[5] = test system: MFM-223; assay: as above
Method: as §1

[6] = test system: MDA-MB-453; assay: as above
Method: as §1

[7] = test system: BT-549; assay: as above
Method: as §1

[8] = test system: CAL-85-1; assay: as above
Method: as §1

[9] = test system: HCC1937; assay: as above
Method: as §1

[10] = test system: MDA-MB-231; assay: as above
Method: as §1

[11] = test system: SK-BR-3; assay: as above
Method: as §1

[12] = test system: CAL-148; assay: as above
Method: as §1

[13] = test system: HCC1599; assay: as above
Method: as §1

[14] = test system: CAL-120; assay: as above
Method: as §1

[15] = test system: MDA-MB-436; assay: as above
Method: as §1

[16] = test system: BT-474; assay: as above
Method: as §1

[17] = test system: Hs578T; assay: as above
Method: as §1

[18] = test system: MDA-MB-468; assay: as above
Method: as §1

[19] = test system: HDQ-P1; assay: normalised viability (% of control), CellTiter-Blue; higher = more viable cells (about 100 = DMSO control)
Summary of the method: (§2)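 After 72 h on compound-loaded 384-well plates, breast cancer cell lines received 2.5 µl CellTiter-Blue reagent for 2 h at 37 °C. Fluorescence at 560/590 nm was scaled per plate so that vehicle was 100 and a positive kill control was 0. The value stands for normalised viability at a single listed concentration of the series.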

[20] = test system: CAL-51; assay: as above
Summary of the method: as §2

[21] = test system: MFM-223; assay: as above
Summary of the method: as §2

[22] = test system: MDA-MB-453; assay: as above
Summary of the method: as §2

[23] = test system: HCC1937; assay: as above
Summary of the method: as §2

[24] = test system: MDA-MB-231; assay: as above
Summary of the method: as §2

[25] = test system: CAL-148; assay: as above
Summary of the method: as §2

[26] = test system: CAL-120; assay: as above
Summary of the method: as §2

[27] = test system: MDA-MB-436; assay: as above
Summary of the method: as §2

[28] = test system: Hs578T; assay: as above
Summary of the method: as §2

SMILES | drug sensitivity score [1] | drug sensitivity score [2] | drug sensitivity score [3] | drug sensitivity score [4] | drug sensitivity score [5] | drug sensitivity score [6] | drug sensitivity score [7] | drug sensitivity score [8] | drug sensitivity score [9] | drug sensitivity score [10] | drug sensitivity score [11] | drug sensitivity score [12] | drug sensitivity score [13] | drug sensitivity score [14] | drug sensitivity score [15] | drug sensitivity score [16] | drug sensitivity score [17] | drug sensitivity score [18] | normalised viability ([19]; 1 nM) [%] | normalised viability ([20]; 1 nM) [%] | normalised viability ([21]; 10 nM) [%] | normalised viability ([22]; 1 nM) [%] | normalised viability ([23]; 10 nM) [%] | normalised viability ([24]; 10 nM) [%] | normalised viability ([25]; 1 nM) [%] | normalised viability ([26]; 10 nM) [%] | normalised viability ([27]; 10 nM) [%] | normalised viability ([28]; 10 nM) [%] | normalised viability ([19]; 10 nM) [%] | normalised viability ([20]; 10 nM) [%] | normalised viability ([21]; 100 nM) [%] | normalised viability ([22]; 10 nM) [%] | normalised viability ([23]; 100 nM) [%] | normalised viability ([24]; 100 nM) [%] | normalised viability ([25]; 10 nM) [%] | normalised viability ([26]; 100 nM) [%] | normalised viability ([27]; 100 nM) [%] | normalised viability ([28]; 100 nM) [%]
Cn1cnc2c(F)c(Nc3ccc(Br)cc3F)c(C(=O)NOCCO)cc21 [MEK-162] | 0 | 0.246 | 7.86 | 16 | 0 | 0 | 0 | 0 | 0 | 4.22 | 0 | 0 | 2.32 | 0 | 0 | 0 | 0 | 0 | 114 | 111 | 87.9 | 113 | 95.1 | 92.5 | 91.5 | 92.2 | 126 | 81.5 | – | – | – | – | – | – | – | – | – | –
COc1c(C)cnc(Cn2cnc3c(Cl)nc(N)nc32)c1C [BIIB021] | 12.8 | 15.5 | 17 | 22 | 18.6 | 24.8 | 18.8 | 13.6 | 19.4 | 15.8 | 26.8 | 19.3 | 8.11 | 23.5 | 11.9 | 18.8 | 12.9 | 14.4 | – | – | – | – | – | – | – | – | – | – | 114 | 100 | 53.9 | 76.4 | 59.6 | 61.4 | 82.3 | 27.6 | 89.8 | 64.7
O=P(O)(NCCCl)NCCCl [Ifosfamide mustard] | 0 | 0 | 0 | 0 | 0 | 0 | 0 | 0 | 0 | 0 | 0 | 0 | 0 | 0 | 0 | 0 | 0 | 0 | – | – | – | – | – | – | – | – | – | – | 122 | 107 | 95.2 | 106 | 100 | 95.6 | 104 | 92.3 | 98.3 | 72.2
